Reference: patent EP2359864B1, “Targeting Vector-Phospholipid Conjugates” (Bracco Suisse SA, priority 2005, dated 2019)
Read-outs that look alike come from different tables or passages of the source. One block for each molecule: values may come before it. Numbered stars: 1 amine (or outer) side, 2 acyl side, 3 side chain; on linkers, the order of the positions; unused ones are H or OH. Side chains are listed from the residue outwards. * marks the point of attachment. DSPE = CCCCCCCCCCCCCCCCCC(=O)OC[C@H](COP(=O)(O)OCCN*)OC(=O)CCCCCCCCCCCCCCCCC; Glutaryl = O=C(CCCC(=O)[*:2])[*:1]

Tests used:
KDR [1] = test: Binding affinity of peptide monomers to KDR (statement only); conditions: statement in the description, no data shown
[2] = test system: KDR receptor expressed on the endothelium of neovessels; test: In vivo ultrasound imaging of KDR-targeted contrast agents, rabbit VX2 tumor model; design: species or system New Zealand rabbits; conditions: confirmed using echographic examination of VX2 tumors in rabbits
Description: The ability of ultrasound contrast agents containing KDR binding lipopeptides of the invention to bind to KDR-expressing tissue in vivo was assessed using a known model of angiogenesis: the rabbit VX2 tumor model.
A known model of angiogenic tissue was used to examine the ability of the KDR-targeted ultrasound microbubbles to localize to and provide an image of angiogenic tissue. The VX2 rabbit carcinoma was serially implanted in the dorsal muscle of New Zealand rabbits (Charles River Laboratories, France) weighting 2.5/3kg.
Tumor was surgically removed, placed into McCoy's culture medium containing 10% fetal calf serum, antibiotics, 1.5 mM Glutamax I and cut into small pieces that were rinsed to remove blood and debris. Then tumor pieces (3 to 5 cm^3) were placed in a 50 ml Falcon tube containing 5 mL of complete medium. The tumor tissue was ground (Polytron) until no more solid pieces were visible. The murky fluid was centrifuged for 5 minutes at 300g and the supernatant discarded. Seven mL of fresh medium was added per 5 mL of pellet.
Rabbits received first 0.3 mL of Vetranquil (Acepromazine, Sanofi, injected intramuscularly) and were then anesthetized with an intramuscular injection of Ketaminol®5/Xylazine (Veterinaria AG/Sigma) mixture (50/10 mg/mL, 0.7 mL/kg). One hundred microliters of VX2 tumor homogenate was injected intramuscularly. Fifteen days after implantation of VX2 tumors, animals were anesthetized again with the same mixture, plus subcutaneous injection of 50% Urethane (2mL/kg, s.c.) (Sigma) for imaging experiments. […]
After bubble injection (0.1 µL/kg of gas) using the preparations of either Example 16 or Example 17, insonation was stopped allowing bubbles to accumulate for 25 minutes. […] The amount of free circulating bubbles was then assessed by recording the signal obtained after 20 sec accumulation without insonation. Video frames from VX2 tumor imaging experiments were captured with video-capture and analysed with Image-Pro Plus 2.0 software. […]

[3] = Storage stability: formation of lyso- compound (analytical HPLC); type: physicochemical; conditions: after 5 days at room temperature; material after Zorbax C-3 preparative HPLC
Description: The present invention provides methods for producing dimeric peptide-phospholipid conjugates having very low levels of TFA. While certain methods provide for the synthesis and purification of such conjugates on a gram scale, formation of a lyso- version of the conjugates has been observed upon storage of lyophilized material at 5°C or upon storage of aqueous solutions of the conjugates. It is believed that the lyso- compound is formed by TFA-promoted acid hydrolysis of one of the phospholipid fatty acid esters in dimer peptide-phospholipid conjugates.
Materials used and conditions for the analytical HPLC system include the following: Column: Zorbax 300SB C-3; 3 mm i.d. x 150 mm; 3.5 µm particle; Eluent A : H2O (HPLC Grade with 0.1% TFA by volume); Eluent B: CH3CN (0.1% TFA by volume). Elution: Initial condition: 50% B then a linear gradient of 50-90% B over 3 min, hold at 90% B for 11 min; Flow rate: 0.5 mL/min; Detection: UV at 220 nm. Ret. time: (Compound (21)): 6.77 min, Rt (lyso): 4.06 min.
The fractions that contained (21) were combined and lyophilized to give a white fluffy solid. This was dissolved in water-acetonitrile, then lyophilized again. This provided 70 mg product devoid of the lyso- compound. The recovery was about 70%. After chromatography was completed, the system was washed with 95% B for 15 min at a flow rate of 30 mL/min. […]

KDR [4] = conditions: as shown in co-pending U.S. Application No. 10/661,156; cited from earlier work
[5] = biological target: Full-length KDR on transfected 293H cells (UniProt P35968); test: static binding of targeted microbubbles (DSPC/DPPG envelope) on KDR-transfected 293H cells, 50% human plasma, microscopy
UniProt P35968, sequence (P35968 20-1356 limits assumed): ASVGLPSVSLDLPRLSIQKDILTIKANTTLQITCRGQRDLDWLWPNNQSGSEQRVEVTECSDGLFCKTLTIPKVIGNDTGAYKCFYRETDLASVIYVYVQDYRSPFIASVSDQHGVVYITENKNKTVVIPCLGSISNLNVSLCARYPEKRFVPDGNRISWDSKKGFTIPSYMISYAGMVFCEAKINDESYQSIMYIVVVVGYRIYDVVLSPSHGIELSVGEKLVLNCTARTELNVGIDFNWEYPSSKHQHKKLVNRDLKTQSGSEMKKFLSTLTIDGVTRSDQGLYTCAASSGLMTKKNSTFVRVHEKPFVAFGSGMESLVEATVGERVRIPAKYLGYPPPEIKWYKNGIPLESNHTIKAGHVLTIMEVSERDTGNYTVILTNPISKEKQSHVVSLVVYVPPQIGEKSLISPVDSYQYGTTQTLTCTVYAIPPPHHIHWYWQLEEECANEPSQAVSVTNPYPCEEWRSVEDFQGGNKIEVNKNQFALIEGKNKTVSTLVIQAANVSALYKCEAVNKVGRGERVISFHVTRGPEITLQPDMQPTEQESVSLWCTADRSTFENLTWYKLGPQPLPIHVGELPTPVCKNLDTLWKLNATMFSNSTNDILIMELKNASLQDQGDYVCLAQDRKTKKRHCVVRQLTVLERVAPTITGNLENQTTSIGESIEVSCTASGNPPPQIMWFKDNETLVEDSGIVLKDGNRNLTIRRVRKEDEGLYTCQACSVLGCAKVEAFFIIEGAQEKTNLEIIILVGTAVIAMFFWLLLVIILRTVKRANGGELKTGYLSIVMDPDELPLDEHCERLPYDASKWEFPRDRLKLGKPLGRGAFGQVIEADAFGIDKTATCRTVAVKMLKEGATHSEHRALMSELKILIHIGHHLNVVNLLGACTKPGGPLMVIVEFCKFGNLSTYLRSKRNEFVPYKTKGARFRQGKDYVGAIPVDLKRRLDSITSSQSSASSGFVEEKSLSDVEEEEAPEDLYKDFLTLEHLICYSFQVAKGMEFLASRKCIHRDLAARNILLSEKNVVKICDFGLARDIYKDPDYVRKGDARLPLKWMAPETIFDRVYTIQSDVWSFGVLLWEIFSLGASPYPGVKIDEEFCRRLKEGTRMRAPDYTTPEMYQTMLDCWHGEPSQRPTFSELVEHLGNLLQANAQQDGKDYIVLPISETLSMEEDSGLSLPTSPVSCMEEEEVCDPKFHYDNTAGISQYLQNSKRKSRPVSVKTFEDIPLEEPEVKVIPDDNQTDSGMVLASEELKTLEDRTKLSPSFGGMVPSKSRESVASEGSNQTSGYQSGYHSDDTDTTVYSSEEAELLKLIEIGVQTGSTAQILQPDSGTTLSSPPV

[6] = biological target: Full-length KDR on transfected 293H cells (UniProt P35968); test: static binding of targeted microbubbles (DSPC/DPPG envelope) on KDR-transfected 293H cells minus mock-transfected cells
[7] = biological target: Full-length KDR on transfected 293H cells (UniProt P35968); test: static binding of targeted microbubbles (DPPE/DPPG envelope) on KDR-transfected 293H cells, 50% human plasma, microscopy
[8] = biological target: Full-length KDR on transfected 293H cells (UniProt P35968); test: static binding of targeted microbubbles (DPPE/DPPG envelope) on KDR-transfected 293H cells minus mock-transfected cells

binding affinity to KDR (KDR [1]): high affinity
Molecule: CC[C@H](C)[C@H](NC(=O)[C@H](CCC(=O)O)NC(=O)[C@H](CC(=O)O)NC(=O)[C@H](Cc1ccc(O)cc1)NC(=O)[C@H](Cc1ccc(O)cc1)NC(=O)[C@H](Cc1c[nH]c2ccccc12)NC(=O)[C@H](CC(=O)O)NC(=O)[C@H](CCC(N)=O)NC(=O)[C@H](C)NC(=O)[C@H](CCCNC(=N)N)NC(C)=O)C(=O)N[C@@H](CC(C)C)C(=O)N[C@@H](CO)C(=O)N[C@@H](CCSC)C(=O)N[C@@H](C)C(=O)N[C@@H](CC(=O)O)C(=O)N[C@@H](CCC(N)=O)C(=O)N[C@@H](CC(C)C)C(=O)N[C@@H](CCCNC(=N)N)C(=O)N[C@@H](Cc1c[nH]cn1)C(=O)N[C@@H](C)C(=O)N[C@@H](Cc1ccccc1)C(=O)N[C@@H](CC(C)C)C(=O)N[C@@H](CO)C(=O)NCC(=O)NCC(=O)NCC(=O)NCC(=O)NCC(=O)N[C@@H](CCCCN)C(N)=O [(2)]

Molecule: Ac-AGPTWCEDDWYYCWLFGTGGGK{Ac-VCWEDSWGGEVCFRYDP-GGGK[-Adoa-Adoa-Glut-K(DSPE-PEG2000-NH-Glut)]-NH2 cyclic (2-12) disulfide}-NH2 cyclic (6-13) disulfide [(11)]
KDR binding of gas filled microbubbles formulated with the conjugate [2]: high KDR binding

Molecule: Ac-AGPTWCEDDWYYCWLFGTGGGK{Ac-VCWEDSWGGEVCFRYDPGGGK[-Adoa-Adoa-Glut-K(DSPE-PEG2000-NH-Glut)]-NH2 cyclic (2-12) disulfide}-NH2 cyclic (6-13) disulfide [(21)]
formation of lyso- compound [3]: no lyso- compound formed

Molecule: Ac-AQDWYYDEILSMADQLRHAFLSGGGGGK(DSPE-PEG2000-NH-Glut)-NH2 [(31)]
KDR binding of gas filled microbubbles formulated with the conjugate [2]: high KDR binding

Molecule: Ac-AQDWYYDEILSMADQLRHAFLSGGGGGK-NH2 [(32)]
binding affinity to KDR (KDR [4]): high affinity

Molecule: Ac-RAQDWYYDEILSMADQLRHAFLSGGGGGK(DSPE-PEG2000-NH-Glut)-NH2 (not fully specified; N-acetyl, C-amide, DSPE-PEG2000-NH-Glut lipid conjugate) [(1)]
KDR binding of gas filled microbubbles formulated with the conjugate [2]: high KDR binding

% of surface covered by bound microbubbles (KDR) [5]: 28%
% of surface covered by bound microbubbles (KDR-Mock) [6]: 27.7%
% of surface covered by bound microbubbles (KDR) [7]: 23.6%
% of surface covered by bound microbubbles (KDR-Mock) [8]: 23.5%
Molecule: Ac-AQDWYYDEILSMADQLRHAFLSGGGGGK([Glutaryl-PEG2000-DSPE])-NH2 [monomeric peptide phospholipid conjugate (31)]
